Measurements from patent US3985758A, “1,4-Dihydropyridine derivatives” (Yamanouchi Pharmaceutical Co., Ltd., priority 1973, dated 1976).
Converted amounts (≈) assume the structure as drawn. Counter-ions that a name gives are not always drawn. Like-named read-outs stand apart in the source and are kept apart here.

Key:
in vivo = details: mouse, in vivo, iv
Description: LD50 was determined by using mice.
2. Acute toxicity in mice
Male ICR weighing 25 to 32 g were used. The test compounds were injected into tail vein and LD 50 values were determined.

[1] = Solubility in water at 25° C; type: physicochemical; details: compounds of the present invention, 25° C; for solubility: at the given pH

solubility [1] [%]	Molecule	LD50 (in vivo) [mg/kg]	pH (of solubility determination) [1]	solubility ([1]; read-out: Solubility) [µg/mL]
–	CCOC(=O)C1=C(C)NC(C)=C(C(=O)OCCN(C)Cc2ccc(OC)cc2)C1c1cccc([N+](=O)[O-])c1 (centres unmarked) [R5=C2H5O, A=CH2CH2, R3=drawing 12, R4=CH3]	10	–	–
–	CC(=O)C1=C(C)NC(C)=C(C(=O)OCCN(C)Cc2ccc(Cl)cc2)C1c1cccc([N+](=O)[O-])c1 (stereo not drawn) [R5=CH3, A=CH2CH2, R3=drawing 15, R4=CH3, 3-Acetyl-2,6-dimethyl-4-(3'-nitrophenyl)-1,4-dihydropyridine-5-carboxylic acid 3-β-(N-p-chlorobenzyl-N-methylamino)ethyl ester]	45	–	–
–	CC1=C(C(=O)OCCN(C)Cc2ccccc2)C(c2cccc([N+](=O)[O-])c2)C(C(=O)OC(C)C)=C(C)N1 (stereo not drawn) [R5=drawing 11, A=CH2CH2, R3=drawing 10, R4=CH3, 2,6-Dimethyl-4-(3'-nitrophenyl)-1,4-dihydropyridine-3,5-dicarboxylic acid 3-β-(N-benzyl-N-methylamino)ethyl ester 5-isopropyl ester]	15	–	–
2.74	2,6-dimethyl-4-(2'-nitrophenyl)-1,4-dihydropyridine-3,5-dicarboxylic acid bis[β-(N-benzyl-N-methylaminethyl] ester hydrochloride [Example 9]	–	3.16	–
–	CC(=O)C1=C(C)NC(C)=C(C(=O)OCCN(C)Cc2ccccc2)C1c1cccc([N+](=O)[O-])c1 (stereo not drawn) [R5=CH3, A=CH2CH2, R3=drawing 14, R4=CH3, 3-Acetyl-2,6-dimethyl-4-(3'-nitrophenyl)-1,4-dihydropyridine-5-carboxylic acid 3-β-(N-benzyl-N-methylamino)ethyl ester]	40	–	–
–	CC1=C(C(=O)OCCCN(C)Cc2ccccc2)C(c2cccc([N+](=O)[O-])c2)C(C(=O)OC(C)C)=C(C)N1 (centres unmarked) [2,6-dimethyl-4-(3'-nitrophenyl)-1,4-dihydropyridine-3,5-dicarboxylic acid 3-isopropylester-5-γ-(N-benzyl-N-methylamino)propyl ester]	10	–	–
–	CC1=C(C(=O)OCCN(C)Cc2ccccc2)C(c2cccc([N+](=O)[O-])c2)C(C(=O)OC(C)C)=C(C)N1 (stereo not drawn) [Example 1, 2,6-dimethyl-4-(3'-nitrophenyl)-1,4-dihydropyridine-3,5-dicarboxylic acid-3-isopropylester-5-β-(N-benzyl-N-methylamino)-ethyl ester hydrochloride]	–	4.12	3100
–	COc1ccc(CN(C)CCOC(=O)C2=C(C)NC(C)=C(C(=O)OCCN(C)Cc3ccc(OC)cc3)C2c2cccc([N+](=O)[O-])c2)cc1 [Example 16, dihydrochloride]	–	3.20	25300
–	CCOC(=O)C1=C(C)NC(C)=C(C(=O)OCCN(C)Cc2ccc(OC)cc2)C1c1cccc([N+](=O)[O-])c1 (stereo not drawn) [Example 14, 2,6-dimethyl-4-(3'-nitrophenyl)-1,4-dihydropyridine-3,5-dicarboxylic acid 3-ethyl ester 5-β-(N-methyl-N-p-methoxybenzylamino)ethyl ester]	–	4.17	1000 (≈ 1.91 mM)
–	CC1=C(C(=O)OCCN(C)Cc2ccccc2)C(c2ccccc2[N+](=O)[O-])C(C(=O)OC(C)C)=C(C)N1 (stereo not drawn) [Example 4, 2,6-dimethyl-4-(2'-nitrophenyl)-1,4-dihydropyridine-3,5-dicarboxylic acid 3-isopropylester-5-β-(N-benzyl-N-methylamino)ethyl ester]	–	4.10	3200 (≈ 6.3 mM)
–	CCOC(=O)C1=C(C)NC(C)=C(C(=O)OCCN(C)Cc2ccccc2)C1c1cccc([N+](=O)[O-])c1 (stereo not drawn) [Example 6, 2,6-dimethyl-4-(3'-nitrophenyl)-1,4-dihydropyridine-3,5-dicarboxylic acid 3-ethylester-5-β-(N-benzyl-N-methylamino)ethyl ester]	–	4.20	2900 (≈ 5.88 mM)
